# Test: Osmolality of mixtures of crushed tablets (or drug solution) in distilled water, Osmometer Model 3250
# Assay type: physicochemical
# Conditions: 1 mg/ml, without dextrose, sodium chloride and potassium phosphate dibasic (control)
# Method: The osmolality of the resulting solution may be measured by using an osmometer (e.g., Advanced® Osmometer Model 3250, manufactured by Advanced Instruments, Inc., the User's Guide (3255 Rev13 042710) of which is herein incorporated by reference).
# To determine whether mixtures formed by crushing tablets formulated prior to the present invention and mixing the crushed tablets with 3 mL or 5 mL of distilled water are hypertonic, a 30 mg Roxicodone® tablet^1 (oxycodone hydrochloride tablets USP) was crushed with a mortar and pestle to a powder. […]
# (§1) To determine whether the mixtures (i.e., solutions, suspensions or gels) formed by crushing these tablets and mixing the crushed tablets with 3 mL or 5 mL of distilled water are hypertonic, one tablet of each formulation was crushed with a mortar and pestle. […] The osmolality of the resulting mixtures was measured using Osmometer Model 3250 manufactured by Advanced Instruments, Inc. The following results were obtained: […]
# as §1, with “tablet from” for “tablet of”, “each blend” for “each formulation”, “and pestle to a powder.” for “and pestle.”, “measured twice” for “measured”
smiles,measurement,value
COc1ccc2c3c1O[C@H]1C(=O)CC[C@H]4[C@@H](C2)N(C)CC[C@]314.O=C(O)C(O)C(O)C(=O)O [hydrocodone bitartrate],Osmolality of solution,4 mOsmol
